Experimental data as given in US6649797B2, “Compounds and methods of use to treat infectious diseases” (The Picower Institute for Medical Research, priority 1996, dated 2003).

Key:
HIV-1ADA = experiment: Nuclear importation of HIV-1 DNA in monocytes (2-LTR circle PCR, Translocation Index); type: cell-based; settings: 100 nM, 48 and 96 hours post infection
Text: The effects of Compound No. 2 on the nuclear importation of HIV-1 preintegration complexes can be directly measured by detecting the presence of circularized duplex HIV-1 genomic DNA. These duplex circles can be readily detected by PCR amplification using primers which span the junction of the circularized HIV-1 genome. Bukrinsky, M. I., et al., 1992, Proc.Natl.Acad.Sci. 89:6580-84.
Briefly, the efficiency of nuclear translocation was estimated by the ratio between the 2-LTR- and pol-specific PCR products, which reflects the portion of 2-LTR circle DNA molecules as a fraction of the entire pool of intracellular HIV-1 DNA. Viral 2-LTR circle DNA is formed exclusively within the nucleus of infected cells and thus is a convenient marker of successful nuclear translocation. […]
PCR analysis of HIV-1 DNA: Total DNA was extracted from HIV-1-infected cells using the IsoQuick extraction kit (Microprobe Corp., Garden Grove, Calif.). DNA was then analyzed by PCR using primer pairs that amplify the following sequences: a fragment of HIV-1 (LTR/gag) that is the last one to be synthesized during reverse transcription and therefore represents the pool of full-length viral DNA molecules; a fragment of polymerase gene (pol); a 2-LTR junction region found only in HIV-1 2-LTR circle DNA molecules; or a fragment of the cellular a-tubulin gene. […]

[1] = tested on: macrophage-tropic strain of HIV-1; experiment: Inhibition of HIV-1 replication in peripheral blood-derived macrophages (IC50, RT or p24 in medium); type: cell-based; settings: Human immunodeficiency virus 1, Macrophage, 120 h; 50% inhibition of viral growth; RT or p24 in medium about day 5 or 6 post-infection
Experimental: A quantitative measurement of the activity of the compounds of the invention to block the replication of HIV-1 in non-dividing cells can be determined by culture of a macrophage-tropic strain of HIV-1 on peripheral blood-derived macrophages. The cells are cultured for 5-6 days prior to infection in a medium consisting of DMEM supplemented with 10% type A/B human serum and 200 U/ml Macrophage Colony Stimulating Factor, with half the medium changed after 3 days, to reach a density of about 10^6 cells per 5 ml well. A macrophage-tropic viral stock may be grown on these cells. The concentration of infectious particles in the stock is estimated by measurement of p24 antigen concentration.
To test the effect of compounds of the invention on HIV-1 infection in the above-described culture system, the medium is removed and replaced with medium containing HIV-1 at a concentration of 1 ng of p24 (10^4 TCID50/ml (TCID=tissue culture infectious doses)) and a known concentration of the compound of the invention (the inhibitor). After 24 hours, the cultures are washed to remove non-adherent virus and the culture is re-fed with medium containing the inhibitor at the desired concentration. The amount of replication of HIV-1 is estimated by an assay of the reverse transcriptase activity or by an assay of the concentration of p24 antigen in the culture medium every 2-3 days throughout the post-infection period. In a preferred embodiment the anti-HIV potency of the candidate drug is measured by comparison of the concentration of reverse transcriptase (RT) or of p24 antigen in the medium of the treated and control cultures at the time of the peak of these values in non-treated control cultures, that is about day 5 or 6 post-infection. Repetition at various levels of inhibitor allows for the calculation of the concentration of inhibitor that achieves 50% inhibition of viral growth, IC50. Table I discloses the IC50 of various inhibitors.

[2] = molecular target: T1, karyopherin α / purified recombinant MA (Human immunodeficiency virus type 1 group M subtype B, UniProt P04591); experiment: Binding of karyopherin α to purified recombinant MA; type: biochemical, HIV-1
T1 construct: or to purified recombinant MA

recombinant MA = molecular target: T2, recombinant MA (Human immunodeficiency virus type 1 group M subtype B, UniProt P04591); experiment: Binding of [14C]-CNI-H0294 to recombinant MA in solution (immunoprecipitation); design: species or system HIV-1
T2 construct: 0.28 nanomoles of recombinant MA or RT [p66/p51 ] dimer
Experimental: Twenty nmol of [^14C]-CNI-HO294 were mixed with 0.28 nmol of recombinant MA or RT (a p51/p66 heterodimer) in 40 μl of binding buffer. Samples were incubated for 2 h at 37° C. in the presence or absence of 200 nmol of unlabeled CNI-H0294. MA and RT proteins were immunoprecipitated using protein G agarose and sheep polyclonal anti-MA (αMA) or rabbit anti-RT (αRT) sera, respectively. Pre-immune sera (PI) was used as control. Bound material was eluted from protein G using 0.1 M glycine buffer [pH 2.8] and the radioactivity in the eluate was quantified in a scintillation counter.
0.28 nanomoles of recombinant MA or RT [p66/p51 ] dimer were mixed with 20 nmol of [^14C] CNI-HO294 (specific activity 5×10^4 cpm/nmol) and incubated 2 hr at room temperature in 40 μl of binding buffer (PBS supplemented with 1% BSA, 0.1% Tween 20, 1 μg/ml leupeptin, 1 μg/ml aprotinin, 1 mM PMSF). Sheep anti-MA or rabbit anti-RT sera (both obtained from NIH AIDS Research and Reference Reagent Program) or pre-immune control sera were then added (at 1:100 dilution) and incubation continued for another 1 hr at room temperature. Immune complexes were precipitated with protein G-agarose, washed, and then eluted with 0.1 M glycine, pH 2.8. Radioactivity of the eluate was measured in a scintillation counter.

| Compound | Translocation Index (HIV-1ADA; relative to drug free control) | inhibition at 0.1 µM (HIV-1ADA; Human immunodeficiency virus 1, Monocyte) | IC50 [1] | inhibition of binding of karyopherin α to purified recombinant MA [2] | binding to recombinant MA (recombinant MA) |
| --- | --- | --- | --- | --- | --- |
| CC(=O)c1cc(Nc2cc(C)[n+](C)c(N)n2)cc(C(C)=O)c1.[I-] [Compound No. 2, 2-amino-4-(3,5-diacetylphenyl)amino-1,6-dimethylpyrimidinium iodide] | less than 10 | > 90% | 1 nM |  |  |
| CC(=O)c1cc(Nc2cc(C)[n+](C)c(N)n2)cc(C(C)=O)c1 [CNI-0294, 2-Amino-4-(3,5-diacetylphenyl)amino-1,6-dimethylpyrimidinium chloride] |  |  |  | did not inhibit | No binding was observed |
